Activity calls are given as the source filed them.
Columns and labels:
Phosphomannomutase 2 = Phosphomannomutase 2 (Homo sapiens, UniProt O15305); assay: Counter screen SAR assay for PMM2 inhibitors via a fluorescence intensity assay. [Related pubchem assays (depositor defined):AID1545, AID1574]
[1] = molecular target: T1, Dual specificity protein phosphatase 6 (Rattus norvegicus, UniProt Q64346); type: functional;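 note: confirmatory in vitro dose-response testing of MKP-3 inhibition; recombinant His-tagged MKP-3 made in E. coli BL21 with OMFP substrate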
T1 sequence (Q64346 whole entry): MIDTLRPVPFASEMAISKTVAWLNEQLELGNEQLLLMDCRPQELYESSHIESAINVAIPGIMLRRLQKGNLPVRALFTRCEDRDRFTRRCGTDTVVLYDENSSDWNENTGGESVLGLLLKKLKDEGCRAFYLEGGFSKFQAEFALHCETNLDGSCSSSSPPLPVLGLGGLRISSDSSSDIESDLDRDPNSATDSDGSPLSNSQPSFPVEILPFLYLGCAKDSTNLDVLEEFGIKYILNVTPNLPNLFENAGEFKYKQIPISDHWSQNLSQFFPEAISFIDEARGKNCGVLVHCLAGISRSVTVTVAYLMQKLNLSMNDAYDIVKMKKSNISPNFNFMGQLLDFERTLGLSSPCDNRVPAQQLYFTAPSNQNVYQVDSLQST

[2] = molecular target: T2, Tyrosine-protein phosphatase non-receptor type 7 (Homo sapiens, UniProt P35236); assay: redox-active compounds inhibiting HePTP phosphatase – biochemical, fluorescence, mechanism study (AID 2068); type: functional
T2 sequence (P35236 whole entry): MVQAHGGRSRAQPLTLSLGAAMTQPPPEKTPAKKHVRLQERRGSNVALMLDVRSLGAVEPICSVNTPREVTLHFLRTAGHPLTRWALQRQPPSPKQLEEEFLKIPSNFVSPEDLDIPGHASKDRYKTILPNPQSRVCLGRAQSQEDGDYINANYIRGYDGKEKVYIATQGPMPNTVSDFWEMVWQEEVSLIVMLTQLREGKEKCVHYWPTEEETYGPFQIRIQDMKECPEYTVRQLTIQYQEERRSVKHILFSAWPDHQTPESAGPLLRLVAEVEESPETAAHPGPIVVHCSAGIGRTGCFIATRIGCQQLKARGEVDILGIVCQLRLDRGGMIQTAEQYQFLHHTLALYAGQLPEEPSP

[3] = molecular target: Dual specificity protein phosphatase 3 (Homo sapiens, UniProt P51452); assay: SAR VHR1 Fluorescent Assay for In Vitro dose response studies Set 2. [Related pubchem assays (depositor defined):AID1654, AID1661, AID1878]; type: functional
Dual specificity protein phosphatase 3, sequence (P51452 whole entry): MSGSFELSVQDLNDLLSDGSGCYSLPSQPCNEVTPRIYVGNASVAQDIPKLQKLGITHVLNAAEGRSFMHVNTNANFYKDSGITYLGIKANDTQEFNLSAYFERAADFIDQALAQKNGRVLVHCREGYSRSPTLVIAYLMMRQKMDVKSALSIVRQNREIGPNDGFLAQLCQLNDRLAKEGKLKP

Streptokinase A = molecular target: T3, Streptokinase A (Streptococcus pyogenes serotype M1, UniProt P10520); assay: viability-normalized secreted streptokinase activity reduction – plasminogen activation absorbance, OD405, dose response (AID 1914); type: functional, Streptococcus pyogenes M1 GAS;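 note: secreted streptokinase activity via plasminogen activation per viability signal from cell pellet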
T3 sequence (P10520 whole entry): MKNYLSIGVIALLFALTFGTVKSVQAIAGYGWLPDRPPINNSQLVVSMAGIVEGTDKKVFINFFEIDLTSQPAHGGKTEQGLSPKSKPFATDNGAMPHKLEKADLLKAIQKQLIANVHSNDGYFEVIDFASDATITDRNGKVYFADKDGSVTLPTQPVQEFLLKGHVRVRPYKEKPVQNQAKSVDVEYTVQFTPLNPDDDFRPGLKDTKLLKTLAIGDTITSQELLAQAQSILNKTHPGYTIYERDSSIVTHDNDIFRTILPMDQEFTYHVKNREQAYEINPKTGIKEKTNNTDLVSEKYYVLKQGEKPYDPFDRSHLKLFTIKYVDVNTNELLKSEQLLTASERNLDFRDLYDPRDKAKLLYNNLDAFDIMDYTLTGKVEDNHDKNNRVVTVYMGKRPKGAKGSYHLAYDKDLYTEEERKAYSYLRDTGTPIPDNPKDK

[4] = molecular target: T4, Corticotropin-releasing factor receptor 2/Corticotropin-releasing factor-binding protein (Homo sapiens, UniProt P24387+Q13324); assay: activators of CRF receptor 2 with binding protein – uHTS hits, confirmation (AID 602473); type: functional; details: read-out: EC50_Mean
T4 sequence (Q13324 whole entry): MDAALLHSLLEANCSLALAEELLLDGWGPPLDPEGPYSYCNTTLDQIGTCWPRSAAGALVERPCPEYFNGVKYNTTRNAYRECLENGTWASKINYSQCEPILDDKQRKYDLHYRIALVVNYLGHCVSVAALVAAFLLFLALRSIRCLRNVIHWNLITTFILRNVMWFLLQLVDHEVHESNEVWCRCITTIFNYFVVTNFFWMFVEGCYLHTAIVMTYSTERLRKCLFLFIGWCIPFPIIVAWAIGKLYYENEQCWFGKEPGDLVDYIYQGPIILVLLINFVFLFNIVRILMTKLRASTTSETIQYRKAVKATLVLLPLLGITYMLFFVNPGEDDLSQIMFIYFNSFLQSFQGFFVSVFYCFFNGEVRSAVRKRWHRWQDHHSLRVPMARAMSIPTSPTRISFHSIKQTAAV
T4 sequence (P24387 whole entry): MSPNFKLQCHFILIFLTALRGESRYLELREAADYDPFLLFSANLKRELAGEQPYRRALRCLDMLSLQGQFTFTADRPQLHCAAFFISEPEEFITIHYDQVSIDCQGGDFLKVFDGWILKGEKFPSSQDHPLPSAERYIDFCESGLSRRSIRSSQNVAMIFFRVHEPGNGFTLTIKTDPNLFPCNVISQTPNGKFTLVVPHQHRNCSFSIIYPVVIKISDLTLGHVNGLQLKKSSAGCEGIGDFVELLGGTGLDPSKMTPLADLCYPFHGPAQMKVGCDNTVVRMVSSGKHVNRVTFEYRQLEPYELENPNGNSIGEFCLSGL

Streptococcus = assay: GAS UMAA2166 growth inhibition – luminescence, BacTiterGlo, counter-screen for streptokinase expression inhibitor project, dose response (AID 1915); type: functional, organism-based;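 note: potency for reduction of bacterial viability or growth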
[5] = system: Streptococcus sp. 'group A'; assay: Streptococcus pyogenes SK(-)GAS viability under kanamycin – luminescence, BacTiterGlo, confirmation, counter-screen for streptokinase expression inhibitor project, dose response (AID 1900); type: functional, organism-based
[6] = viability of PTEN-deleted HCT116 cells – cell-based, HCT116 PTEN knockout, dose response (AID 1047); type: functional;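 note: HCT116 colon tumor cells with PTEN knocked out; cells exposed to compound for 60 hours before readout; potency for loss of cell viability measured by luminescence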
[7] = molecular target: T5, Short transient receptor potential channel 4 (Mus musculus, UniProt Q9QUQ5); assay: potentiation of DAMGO-evoked TRPC4 calcium signal – cell-based, HEK293 TRPC4/mu-opioid, Fluo-4 calcium, EC20 DAMGO, dose response (AID 434941); type: functional
T5 sequence (Q9QUQ5 whole entry): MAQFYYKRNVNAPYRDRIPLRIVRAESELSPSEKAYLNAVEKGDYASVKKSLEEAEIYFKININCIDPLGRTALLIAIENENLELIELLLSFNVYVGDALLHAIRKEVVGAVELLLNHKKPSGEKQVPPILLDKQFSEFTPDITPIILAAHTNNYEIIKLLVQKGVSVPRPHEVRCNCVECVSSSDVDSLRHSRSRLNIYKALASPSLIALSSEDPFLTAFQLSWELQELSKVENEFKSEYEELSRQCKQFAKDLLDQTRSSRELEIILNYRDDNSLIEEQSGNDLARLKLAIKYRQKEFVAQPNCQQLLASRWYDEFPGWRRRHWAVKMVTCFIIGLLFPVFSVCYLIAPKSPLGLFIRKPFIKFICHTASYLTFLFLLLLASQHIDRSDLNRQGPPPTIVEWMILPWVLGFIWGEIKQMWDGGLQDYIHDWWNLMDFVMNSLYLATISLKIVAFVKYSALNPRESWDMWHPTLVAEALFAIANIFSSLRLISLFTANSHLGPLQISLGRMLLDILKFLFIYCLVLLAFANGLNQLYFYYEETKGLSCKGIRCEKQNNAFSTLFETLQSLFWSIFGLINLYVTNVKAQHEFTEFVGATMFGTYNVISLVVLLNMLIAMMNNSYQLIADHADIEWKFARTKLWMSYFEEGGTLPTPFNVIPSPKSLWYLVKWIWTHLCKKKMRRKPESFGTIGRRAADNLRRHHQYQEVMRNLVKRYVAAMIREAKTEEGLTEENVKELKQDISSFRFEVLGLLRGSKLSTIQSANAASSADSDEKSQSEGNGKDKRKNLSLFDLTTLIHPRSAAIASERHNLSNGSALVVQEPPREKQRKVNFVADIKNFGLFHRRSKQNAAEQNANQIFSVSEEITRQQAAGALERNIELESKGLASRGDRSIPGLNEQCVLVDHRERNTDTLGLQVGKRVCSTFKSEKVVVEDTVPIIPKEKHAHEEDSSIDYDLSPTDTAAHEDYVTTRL

[8] = viability of HCT116 lacking mutant beta-catenin – cell-based, human colon tumor, dose response (AID 1045); type: functional;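 note: HCT116 colon tumor cells with beta catenin knocked out; cells exposed to compound for 60 hours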
Coagulation factor XII = molecular target: T6, Coagulation factor XII (Homo sapiens, UniProt P00748); assay: activated coagulation factor XII inhibitor potency, concentration-effect curve, cell-free (AID 716); type: functional
T6 sequence (P00748 whole entry): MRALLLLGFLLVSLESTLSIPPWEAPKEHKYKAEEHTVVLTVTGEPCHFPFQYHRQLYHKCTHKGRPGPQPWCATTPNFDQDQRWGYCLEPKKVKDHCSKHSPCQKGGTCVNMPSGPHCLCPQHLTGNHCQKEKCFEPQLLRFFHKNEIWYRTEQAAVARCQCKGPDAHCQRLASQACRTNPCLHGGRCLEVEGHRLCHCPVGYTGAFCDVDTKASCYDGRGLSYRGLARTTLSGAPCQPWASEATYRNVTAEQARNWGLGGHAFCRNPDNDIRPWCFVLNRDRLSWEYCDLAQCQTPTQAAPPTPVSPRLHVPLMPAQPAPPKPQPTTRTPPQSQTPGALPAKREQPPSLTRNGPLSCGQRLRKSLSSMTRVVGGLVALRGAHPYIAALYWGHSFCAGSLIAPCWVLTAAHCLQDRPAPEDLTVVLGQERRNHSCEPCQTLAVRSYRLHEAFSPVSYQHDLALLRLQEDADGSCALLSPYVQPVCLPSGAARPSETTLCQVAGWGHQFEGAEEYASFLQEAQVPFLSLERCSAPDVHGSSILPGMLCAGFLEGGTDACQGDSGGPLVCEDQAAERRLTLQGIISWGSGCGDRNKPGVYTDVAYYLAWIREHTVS

Phosphomannomutase 2, sequence (O15305 whole entry): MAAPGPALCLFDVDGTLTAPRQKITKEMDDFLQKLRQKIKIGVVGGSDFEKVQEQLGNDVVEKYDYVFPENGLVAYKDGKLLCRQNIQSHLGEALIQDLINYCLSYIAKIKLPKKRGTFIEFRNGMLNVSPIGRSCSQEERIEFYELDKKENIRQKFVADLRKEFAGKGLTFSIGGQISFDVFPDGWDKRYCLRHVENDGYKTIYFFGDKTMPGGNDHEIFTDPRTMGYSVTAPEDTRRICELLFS

## CN(C)c1cccc(/N=c2\ssnc2Cl)c1
Phosphomannomutase 2
  IC50: > 100 µM (inactive)

## NS(=O)(=O)c1cc(C(=O)Nc2cccc(Cl)c2)ccc1Cl
[1]
  IC50: > 100 µM (inactive)
[2]
  IC50: > 100 µM (inactive)
[3]
  IC50: > 100 µM (inactive)

## Cc1ccc(Cl)cc1N1CCN(C(=O)c2cccc3c(=O)c(C)c(-c4ccccc4)oc23)CC1
Streptokinase A
  EC50: 16 µM (active)
[4]
  EC50: > 53 µM (inactive)
Streptococcus
  EC50: > 150 µM (not active)
[5]
  EC50: 5.59 µM (active)
[6]
  EC50: 8.26 µM (active)
[7]
  EC50: 6.68 µM (active)
[8]
  EC50: 9.86 µM (active)

## O=C(O)COc1ccc2c(c1)OCCO2
Coagulation factor XII
  IC50: > 50 µM (inactive)

Reference: ChEMBL document CHEMBL1201862, “PubChem BioAssay data set” (2004)
